Laboratory results published in US20090298820A1, “3-SUBSTITUTED-1H-PYRROLO[2,3-B]PYRIDINE AND 3-SUBSTITUTED-1H-PYRROLO[3,2-B]PYRIDINE COMPOUNDS, THEIR USE AS MTOR KINASE AND PI3 KINASE INHIBITORS, AND THEIR SYNTHESES” (Wyeth, priority 2008, published 2009).
Like-named read-outs stand apart in the source and are kept apart here.

Assays:
mTOR = mTOR (Homo sapiens, UniProt P42345); assay: mTOR enzyme assay (DELFIA format, His6-S6K substrate); type: biochemical
PI3Kα = PI3Kα (Homo sapiens, UniProt P42336); assay: PI3K-alpha fluorescence polarization assay; type: biochemical; settings: read-out: PI3Kα Median IC50
Sequence of PI3Kα (P42336 whole entry, species assumed): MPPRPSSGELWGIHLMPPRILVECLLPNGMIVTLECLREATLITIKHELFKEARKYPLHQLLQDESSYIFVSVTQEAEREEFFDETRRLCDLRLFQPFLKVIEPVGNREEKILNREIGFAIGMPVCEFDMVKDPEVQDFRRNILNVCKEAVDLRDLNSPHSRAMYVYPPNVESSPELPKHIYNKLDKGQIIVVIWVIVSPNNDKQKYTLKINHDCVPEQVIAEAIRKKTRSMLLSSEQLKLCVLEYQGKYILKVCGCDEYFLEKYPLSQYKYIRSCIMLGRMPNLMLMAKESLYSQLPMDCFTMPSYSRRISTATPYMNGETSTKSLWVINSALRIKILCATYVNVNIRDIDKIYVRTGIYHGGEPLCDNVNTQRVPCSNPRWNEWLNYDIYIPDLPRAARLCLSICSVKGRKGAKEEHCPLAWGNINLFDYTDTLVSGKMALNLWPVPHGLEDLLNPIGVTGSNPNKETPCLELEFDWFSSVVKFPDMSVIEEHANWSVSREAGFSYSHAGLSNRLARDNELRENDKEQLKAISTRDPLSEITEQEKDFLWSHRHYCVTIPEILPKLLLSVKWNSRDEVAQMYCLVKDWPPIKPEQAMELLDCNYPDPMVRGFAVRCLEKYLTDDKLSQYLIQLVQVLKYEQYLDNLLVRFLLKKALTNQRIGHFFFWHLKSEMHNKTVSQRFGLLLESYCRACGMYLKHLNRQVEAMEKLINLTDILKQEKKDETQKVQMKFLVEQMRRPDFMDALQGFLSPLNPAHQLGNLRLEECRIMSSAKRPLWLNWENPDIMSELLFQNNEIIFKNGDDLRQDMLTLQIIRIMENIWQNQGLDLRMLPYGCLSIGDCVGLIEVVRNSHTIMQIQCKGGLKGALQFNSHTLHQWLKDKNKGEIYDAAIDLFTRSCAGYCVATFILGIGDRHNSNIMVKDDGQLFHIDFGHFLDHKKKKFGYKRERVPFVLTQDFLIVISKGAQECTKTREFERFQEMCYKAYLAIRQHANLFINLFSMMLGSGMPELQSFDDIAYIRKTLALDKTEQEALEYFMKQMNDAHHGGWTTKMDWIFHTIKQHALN
Sequence of PI3Kα (P27986 whole entry partner, species assumed): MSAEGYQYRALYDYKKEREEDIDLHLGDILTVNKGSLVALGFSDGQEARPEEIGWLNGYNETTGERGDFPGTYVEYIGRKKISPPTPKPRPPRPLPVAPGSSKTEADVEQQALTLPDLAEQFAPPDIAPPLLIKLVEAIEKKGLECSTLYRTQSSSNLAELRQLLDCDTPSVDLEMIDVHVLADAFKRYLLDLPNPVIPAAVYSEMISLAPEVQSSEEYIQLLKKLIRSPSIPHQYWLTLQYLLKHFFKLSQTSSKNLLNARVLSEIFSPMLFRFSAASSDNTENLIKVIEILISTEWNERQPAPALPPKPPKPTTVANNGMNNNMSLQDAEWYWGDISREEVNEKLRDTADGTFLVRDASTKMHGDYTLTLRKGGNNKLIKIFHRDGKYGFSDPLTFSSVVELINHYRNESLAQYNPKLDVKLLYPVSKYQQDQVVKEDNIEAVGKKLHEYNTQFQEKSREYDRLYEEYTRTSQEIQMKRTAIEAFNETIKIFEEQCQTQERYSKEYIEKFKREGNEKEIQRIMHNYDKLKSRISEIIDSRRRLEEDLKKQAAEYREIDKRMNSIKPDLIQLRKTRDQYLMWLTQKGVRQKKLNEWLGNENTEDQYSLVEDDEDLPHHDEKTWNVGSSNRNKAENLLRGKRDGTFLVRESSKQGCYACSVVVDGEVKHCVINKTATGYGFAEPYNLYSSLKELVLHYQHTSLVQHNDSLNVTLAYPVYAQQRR

PI3Kγ = PI3Kγ (Homo sapiens, UniProt P48736); assay: PI3K-gamma fluorescence polarization assay; type: biochemical; settings: read-out: PI3Kγ Median IC50
Sequence of PI3Kγ (P48736 whole entry, species assumed): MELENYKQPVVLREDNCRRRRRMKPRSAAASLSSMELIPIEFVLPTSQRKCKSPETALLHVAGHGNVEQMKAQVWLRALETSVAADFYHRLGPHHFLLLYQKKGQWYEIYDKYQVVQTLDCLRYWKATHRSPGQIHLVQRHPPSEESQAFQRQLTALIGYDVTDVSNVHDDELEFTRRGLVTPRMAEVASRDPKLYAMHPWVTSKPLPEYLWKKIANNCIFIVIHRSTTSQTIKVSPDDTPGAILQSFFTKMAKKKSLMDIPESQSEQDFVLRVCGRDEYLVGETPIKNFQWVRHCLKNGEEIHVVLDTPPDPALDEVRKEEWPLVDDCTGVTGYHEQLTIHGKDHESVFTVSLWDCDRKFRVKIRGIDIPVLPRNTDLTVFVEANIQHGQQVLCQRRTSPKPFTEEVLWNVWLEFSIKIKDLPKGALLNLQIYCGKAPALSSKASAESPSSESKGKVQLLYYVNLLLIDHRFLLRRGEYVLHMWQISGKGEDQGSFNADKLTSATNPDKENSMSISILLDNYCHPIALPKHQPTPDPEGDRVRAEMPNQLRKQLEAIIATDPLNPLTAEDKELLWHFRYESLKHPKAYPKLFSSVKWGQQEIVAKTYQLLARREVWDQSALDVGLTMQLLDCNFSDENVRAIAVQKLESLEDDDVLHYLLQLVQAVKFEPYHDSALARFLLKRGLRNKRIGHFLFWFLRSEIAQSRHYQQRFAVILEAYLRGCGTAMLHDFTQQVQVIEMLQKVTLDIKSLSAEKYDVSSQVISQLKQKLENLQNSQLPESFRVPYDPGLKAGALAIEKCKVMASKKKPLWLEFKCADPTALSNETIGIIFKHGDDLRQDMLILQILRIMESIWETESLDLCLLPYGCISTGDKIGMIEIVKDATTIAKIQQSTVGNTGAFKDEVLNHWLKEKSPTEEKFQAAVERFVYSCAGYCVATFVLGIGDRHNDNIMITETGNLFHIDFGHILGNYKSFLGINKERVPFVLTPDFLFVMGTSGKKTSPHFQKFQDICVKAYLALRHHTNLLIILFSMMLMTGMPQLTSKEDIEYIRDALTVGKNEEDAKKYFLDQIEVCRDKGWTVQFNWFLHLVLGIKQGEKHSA

[1] = read-out: mTOR Kinase Median IC50

| IC50 (mTOR; [1]) | IC50 (PI3Kα) | IC50 (PI3Kγ) | melting point | SMILES | IC50 (mTOR) |
| --- | --- | --- | --- | --- | --- |
| 16.5 nM | 6360 nM | 378 nM | 257 to 262 °C (dec.) | Cn1cc(/C=C2\Oc3ccc(NC(=O)Nc4cccnc4)cc3C2=O)c2c(N3CCC(C(=O)N4CC5CC4CN5)CC3)ccnc21 (centres unmarked) [Compound 264, 1-[(2Z)-2-({4-[4-(2,5-diazabicyclo[2.2.1]hept-2-ylcarbonyl)piperidin-1-yl]-1-methyl-1H-pyrrolo[2,3-b]pyridin-3-yl}methylene)-3-oxo-2,3-dihydro-1-benzofuran-5-yl]-3-pyridin-3-ylurea] | – |
| 13 nM | 4960 nM | 5750 nM | 184 to 194 °C | CN(C(=O)C1CCN(c2ccnc3c2c(/C=C2\Oc4ccc(NC(=O)Nc5cccnc5)cc4C2=O)cn3C)CC1)c1cccnc1 [Compound 269, N-methyl-1-{1-methyl-3-[(Z)-{3-oxo-5-[(pyridin-3-ylcarbamoyl)amino]-1-benzofuran-2(3H)-ylidene}methyl]-1H-pyrrolo[2,3-b]pyridin-4-yl}-N-pyridin-3-ylpiperidine-4-carboxamide] | – |
| 6 nM | > 10000 nM | > 10000 nM | 187 to 194 °C | Cn1cc(/C=C2\Oc3ccc(NC(=O)Nc4cccnc4)cc3C2=O)c2c(N3CCC(C(=O)NCc4cccnc4)CC3)ccnc21 [Compound 270, 1-{1-methyl-3-[(Z)-{3-oxo-5-[(pyridin-3-ylcarbamoyl)amino]-1-benzofuran-2(3H)-ylidene}methyl]-1H-pyrrolo[2,3-b]pyridin-4-yl}-N-(pyridin-3-ylmethyl)piperidine-4-carboxamide] | – |
| 9 nM | 4040 nM | 3910 nM | 208 to 216 °C | Cn1cc(/C=C2\Oc3ccc(NC(=O)Nc4cccnc4)cc3C2=O)c2c(N3CCC(C(=O)NCc4ccncc4)CC3)ccnc21 [Compound 271, 1-{1-methyl-3-[(Z)-{3-oxo-5-[(pyridin-3-ylcarbamoyl)amino]-1-benzofuran-2(3H)-ylidene}methyl]-1H-pyrrolo[2,3-b]pyridin-4-yl}-N-(pyridin-4-ylmethyl)piperidine-4-carboxamide] | – |
| 19 nM | > 10000 nM | 2410 nM | 151 to 164 °C | CN1CC2CC1CN2C(=O)C1CCN(c2ccnc3c2c(/C=C2\Oc4ccc(NC(=O)Nc5cccnc5)cc4C2=O)cn3C)CC1 (centres unmarked) [Compound 272, 1-{(2Z)-2-[(1-methyl-4-{4-[(5-methyl-2,5-diazabicyclo[2.2.1]hept-2-yl)carbonyl]piperidin-1-yl}-1H-pyrrolo[2,3-b]pyridin-3-yl)methylidene]-3-oxo-2,3-dihydro-1-benzofuran-5-yl}-3-pyridin-3-ylurea] | – |
| 21 nM | 288 nM | 642 nM | 224 to 227 °C (dec.) | Cn1cc(/C=C2\Oc3ccc(NC(=O)Nc4cccnc4)cc3C2=O)c2c(N3CC4COC(C3)O4)ccnc21 (centres unmarked) [Compound 282, 1-[(2Z)-2-{[4-(6,8-dioxa-3-azabicyclo[3.2.1]oct-3-yl)-1-methyl-1H-pyrrolo[2,3-b]pyridin-3-yl]methylidene}-3-oxo-2,3-dihydro-1-benzofuran-5-yl]-3-pyridin-3-ylurea] | – |
| 300 nM | > 10000 nM | 862 nM | 193 to 200 °C | Cn1cc(/C=C2\Oc3ccc(NC(=O)Nc4cccnc4)cc3C2=O)c2c(N3CC4CNCC(C3)O4)ccnc21 [Compound 293, 1-[(2Z)-2-{[1-methyl-4-(9-oxa-3,7-diazabicyclo[3.3.1]non-3-yl)-1H-pyrrolo[2,3-b]pyridin-3-yl]methylidene}-3-oxo-2,3-dihydro-1-benzofuran-5-yl]-3-pyridin-3-ylurea] | – |

The next lines start with the molecule.

| SMILES | IC50 (mTOR; [1]) | IC50 (PI3Kα) | IC50 (PI3Kγ) | melting point | IC50 (mTOR) |
| --- | --- | --- | --- | --- | --- |
| Cn1cc(/C=C2\Oc3ccc(NC(=O)Nc4cccnc4)cc3C2=O)c2c(N3C4CCCC3COC4)ccnc21 [Compound 276, 1-[(2Z)-2-{[1-methyl-4-(3-oxa-9-azabicyclo[3.3.1]non-9-yl)-1H-pyrrolo[2,3-b]pyridin-3-yl]methylidene}-3-oxo-2,3-dihydro-1-benzofuran-5-yl]-3-pyridin-3-ylurea] | 31.5 nM | 2260 nM | 1120 nM | 240 to 245 °C (dec.) | – |
| Cn1cc(/C=C2\Oc3ccc(NC(=O)Nc4cccnc4)cc3C2=O)c2c(N3CC4CCC3CO4)ccnc21 (centres unmarked) [Compound 277, 1-[(2Z)-2-{[1-methyl-4-(2-oxa-5-azabicyclo[2.2.2]oct-5-yl)-1H-pyrrolo[2,3-b]pyridin-3-yl]methylidene}-3-oxo-2,3-dihydro-1-benzofuran-5-yl]-3-pyridin-3-ylurea] | 7.5 nM | 296 nM | 2590 nM | 227 to 235 °C | – |
| CNC(=O)Nc1ccc2c(c1)C(=O)/C(=C/c1cn(C)c3nccc(N4CC5CCC4CO5)c13)O2 (centres unmarked) [Compound 279, 1-methyl-3-[(2Z)-2-{[1-methyl-4-(2-oxa-5-azabicyclo[2.2.2]oct-5-yl)-1H-pyrrolo[2,3-b]pyridin-3-yl]methylidene}-3-oxo-2,3-dihydro-1-benzofuran-5-yl]urea] | 11 nM | 128 nM | 643 nM | 197 to 205 °C (dec.) | – |
| Cn1cc(/C=C2\Oc3ccc(NC(=O)Nc4cccnc4)cc3C2=O)c2c(N3C4CCC3COC4)ccnc21 [Compound 280, 1-[(2Z)-2-{[1-methyl-4-(3-oxa-8-azabicyclo[3.2.1]oct-8-yl)-1H-pyrrolo[2,3-b]pyridin-3-yl]methylidene}-3-oxo-2,3-dihydro-1-benzofuran-5-yl]-3-pyridin-3-ylurea] | – | 179 nM | 995 nM | 250 to 255 °C (dec.) | 42 nM |
| CNC(=O)Nc1ccc2c(c1)C(=O)/C(=C/c1cn(C)c3nccc(N4C5CCC4COC5)c13)O2 [Compound 281, 1-methyl-3-[(2Z)-2-{[1-methyl-4-(3-oxa-8-azabicyclo[3.2.1]oct-8-yl)-1H-pyrrolo[2,3-b]pyridin-3-yl]methylidene}-3-oxo-2,3-dihydro-1-benzofuran-5-yl]urea] | 31 nM | 104 nM | 1710 nM | 226 to 232 °C (dec.) | – |
| Cn1cc(/C=C2\Oc3ccc(NC(=O)Nc4cccnc4)cc3C2=O)c2c(N3CC4CC3CO4)ccnc21 (centres unmarked) [Compound 283, 1-[(2Z)-2-{[1-methyl-4-(2-oxa-5-azabicyclo[2.2.1]hept-5-yl)-1H-pyrrolo[2,3-b]pyridin-3-yl]methylidene}-3-oxo-2,3-dihydro-1-benzofuran-5-yl]-3-pyridin-3-ylurea] | 27 nM | 350 nM | 779 nM | 218 to 222 °C (dec.) | – |
| CNC(=O)Nc1ccc2c(c1)C(=O)/C(=C/c1cn(C)c3nccc(N4CC5CC4CO5)c13)O2 (centres unmarked) [Compound 284, 1-methyl-3-[(2Z)-2-{[1-methyl-4-(2-oxa-5-azabicyclo[2.2.1]hept-5-yl)-1H-pyrrolo[2,3-b]pyridin-3-yl]methylidene}-3-oxo-2,3-dihydro-1-benzofuran-5-yl]urea] | 50 nM | 275 nM | 721 nM | 242 to 247 °C (dec.) | – |
| Cn1cc(/C=C2\Oc3ccc(NC(=O)Nc4cccnc4)cc3C2=O)c2c(N3CCC(C(=O)N4C5CCC4COC5)CC3)ccnc21 [Compound 292, 1-[(2Z)-2-({1-methyl-4-[4-(3-oxa-8-azabicyclo[3.2.1]oct-8-ylcarbonyl)piperidin-1-yl]-1H-pyrrolo[2,3-b]pyridin-3-yl}methylidene)-3-oxo-2,3-dihydro-1-benzofuran-5-yl]-3-pyridin-3-ylurea] | 5.4 nM | 3480 nM | > 10000 nM | 197 to 203 °C | – |
| CCC1(CC)CN(c2ccnc3c2c(/C=C2\Oc4ccc(NC(=O)Nc5cccnc5)cc4C2=O)cn3C)CCO1 [Compound 295, 1-[(2Z)-2-{[4-(2,2-diethylmorpholin-4-yl)-1-methyl-1H-pyrrolo[2,3-b]pyridin-3-yl]methylidene}-3-oxo-2,3-dihydro-1-benzofuran-5-yl]-3-pyridin-3-ylurea] | 21.5 nM | 721 nM | 1230 nM | 225 to 228 °C | – |
| C[C@@H]1CN(c2ccnc3c2c(/C=C2\Oc4ccc(NC(=O)Nc5cccnc5)cc4C2=O)cn3C)C[C@H](C)O1 [Compound 296, 1-[(2Z)-2-({4-[(2R,6S)-2,6-dimethylmorpholin-4-yl]-1-methyl-1H-pyrrolo[2,3-b]pyridin-3-yl}methylidene)-3-oxo-2,3-dihydro-1-benzofuran-5-yl]-3-pyridin-3-ylurea] | 19 nM | 239 nM | 1160 nM | 255 to 260 °C | – |
| COCCC1CN(c2ccnc3c2c(/C=C2\Oc4ccc(NC(=O)Nc5cccnc5)cc4C2=O)cn3C)CCO1 (centres unmarked) [Compound 297, 1-[(2Z)-2-({4-[2-(2-methoxyethyl)morpholin-4-yl]-1-methyl-1H-pyrrolo[2,3-b]pyridin-3-yl}methylidene)-3-oxo-2,3-dihydro-1-benzofuran-5-yl]-3-pyridin-3-ylurea] | 25.5 nM | 884 nM | 1930 nM | 225 to 260 °C | – |
| Cn1cc(/C=C2\Oc3ccc(NC(=O)Nc4cccnc4)cc3C2=O)c2c(N3CCOC(C)(C)C3)ccnc21 [Compound 301, 1-[(2Z)-2-{[4-(2,2-dimethylmorpholin-4-yl)-1-methyl-1H-pyrrolo[2,3-b]pyridin-3-yl]methylidene}-3-oxo-2,3-dihydro-1-benzofuran-5-yl]-3-pyridin-3-ylurea] | 13 nM | 566 nM | 1110 nM | 222 to 226 °C | – |
| C[C@@H]1CN(C(=O)C2CCN(c3ccnc4c3c(/C=C3\Oc5cccc(O)c5C3=O)cn4C)CC2)C[C@H](C)O1 [Compound 302, (2Z)-2-{[4-(4-{[(2R,6S)-2,6-dimethylmorpholin-4-yl]carbonyl}piperidin-1-yl)-1-methyl-1H-pyrrolo[2,3-b]pyridin-3-yl]methylidene}-4-hydroxy-1-benzofuran-3(2H)-one] | 3.2 nM | 223 nM | 396 nM | 162 to 166 °C | – |
